In patent publication US7015343B2, “Sulphonated dehydrogenated sylvate, the preparation and use” (Shanghai Xingkang Pharmaceuticals Research & Development …, priority 2001, dated 2006):

How the values were obtained:
[1] = tested on: pepsin; assay: Pepsin activity in gastric juice of pylorus-ligated rats (Mett tube method); type: in vivo, Wister rats; conditions: for activity of pepsin: n = 8, X ± S; for Inhibition ratio for pepsin activity: versus control group
Description: (§1) Wister rats (200–250 g), half were male and half were female, were starved for 48 hours and the pylori were ligated. Immediately after ligation, a suspension or solution of a salt in distilled water was administered orally into the stomachs in an amount of 2.0 ml/Kg; while 0.5% MC of the same volume was given to the control group. After administration of the test salt for 5 hours, the rats were killed. Their cardias were ligated and their stomachs were taken out. The gastric juice was collected into centrifuge tube and centrifuged at 2500 rpm for 10 min, the volume after residue removed was recorded as the total volume of the gastric juice. The acidity of gastric juice and pepsin activity were measured with the supernatant of the gastric juice after centrifuging.
(b) Enzyme assay for pepsin (Mett tube method): 0.5 ml of gastric juice was added exactly into a clean 50 ml flask with a plug, the flask was shaken to get a homogeneous solution, then, 15.0 ml of 0.05 N HCL solution was added in, in the meantime, two 3.0–4.0 cm long Mett tubes were put inside. The flask was plugged, shaken to get a homogeneous solution, left to stand at 37° C. for 24 hours. The length (mm) of the transparent part at the two ends of each Mett tube was measured precisely to get four values. The mean value was based on the four values, and the pepsin activity was calculated. Inhibiting ratio of pepsin activity %=[(pepsin activity of the control group−pepsin activity of the treatment group)/pepsin activity of the control group]×100% Test Result: […]

[2] = tested on: KunMing mice; assay: Acute toxicity of NIPWZ, oral administration to mice (LD50, Bliss's method); type: in vivo; conditions: for Death distribution 2 h / Death distribution 4 h / Death distribution 24 h / Death distribution 72 h / Number of death (F:M) / Ratio of death: 10 mice
Description: 50 second grade KunMing mice were provided, each weighing 20.0±1.2 g, randomly divided into 5 groups, 10 for each group, 5 male and 5 female. Medicine was administered intra-gastrically by 40 ml/Kg once, the solvent was 0.5% MC. The doses for the 5 groups were: 4480 mg/Kg, 3000 mg/Kg, 2010 mg/Kg, 1350 mg/Kg, 910 mg/Kg, the ratio of any two abutted doses was 1:0.67. […] Wherein the LD50 was determined by Bliss's method.

[3] = tested on: gastric juice secretion of Pylorus-ligated rats; assay: Gastric juice secretion and acidity of pylorus-ligated rats after oral administration; type: in vivo, Wister rats; design: T.AC / MEL (10^3) / MEAH: unit not given here; conditions: for Total volume of gastric juice: 5 hours after pylorus ligation; for Total volume of gastric juice / MEL (10^3) / MEAH: n = 8, X ± S; for Inhibition ratio for total acid amount / Inhibition to gastric juice secretion: versus control group; for MEL (10^3): acid concentration of gastric juice; for MEAH: total acid amount in gastric juice; for T.AC: volume of 0.01 N NaOH to titrate to pH 7, n = 8, X ± S
Description: as §1
(a) Measurement of the acidity of gastric juice: with 0.5 ml of gastric juice taken exactly, about 20 ml of distilled water added in, it was measured with pH meter. The mixture was titrated to pH 7 with 0.01 N NaOH solution, and the volume of 0.01 N NaOH solution used was recorded. Then, the volume (T.AC) was calculated corresponding to titrating to pH 7 with 0.01 N NaOH solution. Acid concentration of gastric juice (MEL)=(T.AC/2)×1000 Total acid amount in gastric juice (MEAH)=MEL×(total volume of gastric juice/1000) Inhibiting ratio on the secretion of gastric juice %=[(volume of the gastric juice of the control group−volume of the gastric juice of the treatment group)/volume of the gastric juice of the control group]×100% Inhibiting ratio on the total acid amount in gastric juice %=[(MEAH of the control group−MEAH of the treatment group)/MEAH of the control group]×100%

## Salts of Sulfodehydroabietic Acid with Zinc [NIPWZ]
[1]; oral 50 mg/Kg
  activity of pepsin: 0.88 ± 0.33 U
  Inhibition ratio for pepsin activity: 40.5%
[1]; oral 100 mg/Kg
  activity of pepsin: 0.66 ± 0.34 U
  Inhibition ratio for pepsin activity: 55.4%
[2]; mice, oral 910 mg/Kg
  Death distribution 2 h: 0
  Death distribution 4 h: 0
  Death distribution 24 h: 0
  Death distribution 72 h: 0
  Number of death (F:M): 0 (0:0)
  Ratio of death: 0%
[2]; mice, oral 1350 mg/Kg
  Death distribution 2 h: 0
  Death distribution 4 h: 0
  Death distribution 24 h: 3
  Death distribution 72 h: 1
  Number of death (F:M): 4 (1:3)
  Ratio of death: 40%
[2]; mice, oral 2010 mg/Kg
  Death distribution 2 h: 0
  Death distribution 4 h: 0
  Death distribution 24 h: 7
  Death distribution 72 h: 0
  Number of death (F:M): 7 (5:2)
  Ratio of death: 70%
[2]; mice, oral 3000 mg/Kg
  Death distribution 2 h: 0
  Death distribution 4 h: 7
  Death distribution 24 h: 1
  Death distribution 72 h: 0
  Number of death (F:M): 8 (5:3)
  Ratio of death: 80%
[2]; mice, oral 4480 mg/Kg
  Death distribution 2 h: 7
  Death distribution 4 h: 3
  Death distribution 24 h: 0
  Death distribution 72 h: 0
  Number of death (F:M): 10 (5:5)
  Ratio of death: 100%
[2]; mice, oral administration, Bliss's method
  LD50: 1728 mg/kg
[2]; taking 1000 mg/day for a 60 Kg human being
  LD50 as multiple of the clinic dose: approximately 104 times
[3]; oral 50 mg/Kg
  Total volume of gastric juice: 7.2 ± 2.9 mL
  Inhibition ratio for total acid amount: 52.9%
  Inhibition to gastric juice secretion: 20.9%
  MEL (10^3): 1.92 ± 1.47
  MEAH: 13.8 ± 4.2
  T.AC: 3.83 ± 2.93
[3]; oral 100 mg/Kg
  Total volume of gastric juice: 7.0 ± 3.1 mL
  Inhibition ratio for total acid amount: 47.1%
  Inhibition to gastric juice secretion: 23.1%
  MEL (10^3): 2.21 ± 1.32
  MEAH: 15.5 ± 4.1
  T.AC: 4.41 ± 2.64

## Salts of Sulfodehydroabietic Acid with Bismuth [NIPWB]
[1]; oral 50 mg/Kg
  activity of pepsin: 0.74 ± 0.61 U
  Inhibition ratio for pepsin activity: 50.0%
[1]; oral 100 mg/Kg
  activity of pepsin: 0.36 ± 0.20 U
  Inhibition ratio for pepsin activity: 75.7%
[3]; oral 50 mg/Kg
  Total volume of gastric juice: 6.5 ± 2.5 mL
  Inhibition ratio for total acid amount: 45.7%
  Inhibition to gastric juice secretion: 28.6%
  MEL (10^3): 2.42 ± 1.79
  MEAH: 15.9 ± 4.5
  T.AC: 4.85 ± 3.58
[3]; oral 100 mg/Kg
  Total volume of gastric juice: 7.6 ± 2.9 mL
  Inhibition ratio for total acid amount: 44.4%
  Inhibition to gastric juice secretion: 16.5%
  MEL (10^3): 2.16 ± 1.65
  MEAH: 16.3 ± 4.7
  T.AC: 4.32 ± 3.30
